Test results published in patent US20070123571A1, “Use of a compound in the treatment of sleep disorders” (priority 2003, published 2007).
Counter-ions that a name gives are not always drawn.

Legend:
[1] = single doses 10 mg or 20 mg sustained release at bedtime, volunteers, compared with placebo; cited from earlier work
[2] = Loughborough sleep log, morning log: awoke refreshed / quality of sleep responses; type: in vivo, human
Description: Typically, the percentage of individuals who, after taking a dose of triprolidine before sleeptime, wake refreshed after sleeping is in the range 1-100%, more typically, 5-70%, most typically 10-35%. An especially typical range as aforesaid is 15-30% or even more especially 20-30%. Typically, by the terms “waking refreshed” or “wake refreshed” is meant that an individual felt at least refreshed on waking, preferably, the terms are defined as the individual felt very refreshed or refreshed in accordance with the Loughborough sleep log.
The degree of refreshedness and quality of sleep may be determined by the “morning” log of the Loughborough sleep log with the highest degree of refreshedness or quality of sleep being represented as 1 and the lowest being represented as 5. Accordingly, the percentage increase in refreshedness or quality of sleep is measured in this context by the decrease in the mean refreshedness or quality of sleep.
Preferably, by the use of the present invention, the response of awakening very refreshed or refreshed, as determined, for instance, by the morning log of the Loughborough sleep log, is improved by at least 20%, more preferably, by at least, 30%, most preferably by at least 40%, as compared with an equivalent dose of placebo.
Preferably, by the use of the present invention, the response of sleeping extremely well or very well, as determined, for instance, in accordance with the morning log of the Loughborough sleep log, is improved by at least 20%, more preferably, at least, 35%, most preferably at least 50%, as compared with an equivalent dose of placebo.
Preferably, by the use of the present invention, the response of sleeping extremely well or very well, as determined, for instance, in accordance with the morning log of the Loughborough sleep log, is found for at least 20% of individuals, more preferably, at least 25%, most preferably, at least 30%. For example over 35% of individuals had such a response.

[3] = Karolinska 9-point scale: alertness / sleepiness on waking; type: in vivo, human
Description: By the term felt alert is meant that an individual felt at least alert on waking. Preferably, the term is defined as the individual felt alert, very alert or extremely alert in accordance with the Karolinska 9-point scale. By the term felt sleepy is meant that an individual felt sleepy on waking. Preferably, the term is defined as the individual felt sleepy or very sleepy in accordance with points 8 or 9 of the Karolinska 9-point scale. Preferably, by the use of the present invention, the response of feeling extremely alert, very alert or alert as determined, for instance, in accordance with the Karolinska 9-point scale, is improved by at least 2%, more preferably, by at least, 5%, most preferably by at least 10%, as compared with an equivalent dose of placebo. Preferably, by the use of the present invention, the response of feeling sleepy and needing to make some effort to stay awake or very sleepy, as determined, for instance, in accordance with points 8 and 9 of the Karolinska 9 point scale, is improved (i.e. decreased) by at least 2%, more preferably, by at least, 4%, most preferably, by at least 10%, as compared with an equivalent dose of placebo.

## Cc1ccc(/C(=C\CN2CCCC2)c2ccccn2)cc1 [TRP•HCl•H2O]
[1]
  sleep onset latency (time required to fall asleep): did not significantly alter
  total sleep time: no effect
  wakefulness during sleep: no effect
[2]; 2.5 mg dose, Monday
  Loughborough Sleep Log: Awoke Very Refreshed or Refreshed Responses: 23%
  Loughborough Sleep Log: Last Night I Slept Extremely Well or Very Well Responses: 41.4%
[2]; 2.5 mg dose, Tuesday
  Loughborough Sleep Log: Awoke Very Refreshed or Refreshed Responses: 23%
  Loughborough Sleep Log: Last Night I Slept Extremely Well or Very Well Responses: 41.8%
[2]; 2.5 mg dose, Wednesday
  Loughborough Sleep Log: Awoke Very Refreshed or Refreshed Responses: 25.8%
  Loughborough Sleep Log: Last Night I Slept Extremely Well or Very Well Responses: 37.9%
[2]; 5 mg dose, Monday
  Loughborough Sleep Log: Awoke Very Refreshed or Refreshed Responses: 11.5%
  Loughborough Sleep Log: Last Night I Slept Extremely Well or Very Well Responses: 50.9%
[2]; 5 mg dose, Tuesday
  Loughborough Sleep Log: Awoke Very Refreshed or Refreshed Responses: 8.2%
  Loughborough Sleep Log: Last Night I Slept Extremely Well or Very Well Responses: 28.8%
[2]; 5 mg dose, Wednesday
  Loughborough Sleep Log: Awoke Very Refreshed or Refreshed Responses: 14.8%
  Loughborough Sleep Log: Last Night I Slept Extremely Well or Very Well Responses: 39.3%
[3]; 2.5 mg dose, Monday
  (b) I feel (i) sleepy, [and need to make] some effort or (ii) very sleepy, a great effort to keep awake: 11.5%
  Karolinska 9-point scale (a) I feel extremely alert, very alert or alert: 21.3%
[3]; 2.5 mg dose, Tuesday
  (b) I feel (i) sleepy, [and need to make] some effort or (ii) very sleepy, a great effort to keep awake: 13.1%
  Karolinska 9-point scale (a) I feel extremely alert, very alert or alert: 21.3%
[3]; 2.5 mg dose, Wednesday
  (b) I feel (i) sleepy, [and need to make] some effort or (ii) very sleepy, a great effort to keep awake: 6.5%
  Karolinska 9-point scale (a) I feel extremely alert, very alert or alert: 21.0%
[3]; 5 mg dose, Monday
  (b) I feel (i) sleepy, [and need to make] some effort or (ii) very sleepy, a great effort to keep awake: 12.5%
  Karolinska 9-point scale (a) I feel extremely alert, very alert or alert: 6.3%
[3]; 5 mg dose, Tuesday
  (b) I feel (i) sleepy, [and need to make] some effort or (ii) very sleepy, a great effort to keep awake: 17.5%
  Karolinska 9-point scale (a) I feel extremely alert, very alert or alert: 9.5%
[3]; 5 mg dose, Wednesday
  (b) I feel (i) sleepy, [and need to make] some effort or (ii) very sleepy, a great effort to keep awake: 12.7%
  Karolinska 9-point scale (a) I feel extremely alert, very alert or alert: 17.5%
